In patent US11104805B2, “High-saturation scarlet color dye ink for high-speed inkjet process” (KOREA INSTITUE OF INDUSTRIAL TECHNOLOGY, priority 2018, dated 2021):
“Also recorded” adds a separate entry of the source.

Columns and labels:
[1] = Light stability: relative absorbance over time under light irradiation
Description: An absorbance value before light irradiation was set to 1 and relative absorbance values over time were measured.

[2] = Thermal stability by TGA under N2 atmosphere; assay type: physicochemical
Text: The thermal stability of each sample was investigated by a TGA method under an N2 atmosphere.

Water solubility of dyes = assay type: physicochemical
[3] = UV-Vis absorption spectra of dyes in water; assay type: physicochemical; conditions: 10^−5 M in water
Text: The UV-Vis absorption spectra of the dyes 1b to 3b measured at 10^−5 M in water are illustrated in FIG. 2, and corresponding data are shown in Table 1 below. […] When the water solubility of the dye increases, the probability of being present as a single molecule increases, and thus the color developability of each dye molecule is increased, resulting in increased color intensity.
In addition, an absorption peak form having two absorption maxima appeared. This is because a single molecule and aggregated molecules have different absorption maxima. Generally, as the concentration becomes lower, the probability of being present as a single molecule increases, and as the concentration increases, the tendency to aggregate becomes stronger, and thus one peak appears at each maximum, but it was confirmed from this experiment that since the two cases were present at a measurement concentration of 10 μM, absorption peaks appeared separately.

SMILES	shift of absorption maxima after final light irradiation ([1]; 1,200 minutes)	relative absorbance after final light irradiation ([1]; 1,200 minutes, absorbance before irradiation set to 1)	λmax (nm) (after 1200 min) ([1]; after 1200 min light irradiation, first (or only) maximum)	λmax (nm) ([1]; before light irradiation, first (or only) maximum)	K (photodegradation rate constant) ([1]; light irradiation)	Td (degradation temperature) [2]	water solubility compared with the synthesized perylene dyes (1b to 3b) (Water solubility of dyes; comparison in words)	εmax ([3]; at first (or only) absorption maximum)	λmax (nm) (after 1,200 min) ([3]; first (or only) absorption maximum)	water solubility (Water solubility of dyes; in water)
O=S(=O)([O-])c1ccc2c(N=Nc3ccc(S(=O)(=O)[O-])c4ccccc34)c(O)c(S(=O)(=O)[O-])cc2c1.[Na+].[Na+].[Na+] [Acid red 27]	about 4 nm	about 0.5	(→ 506) nm	502 nm	0.0004945 min⁻¹	291 °C	poorer water solubility; also recorded: deteriorated solubility	23000 L/mol/cm	521 nm	
O=C1c2ccc3c4c(S(=O)(=O)O)cc5c6c(ccc(c7c(S(=O)(=O)O)cc(c2c37)C(=O)N1c1ccc(S(=O)(=O)O)cc1)c64)C(=O)N(c1ccc(S(=O)(=O)O)cc1)C5=O [Dye 3b, N,N′-bis[4-(sulfuric acid)phenyl]-1,7-(disulfuric acid)perylene-3,4,9,10-tetra carboxydiimide]										≥ 20 wt %
